# Results as given in the supplement of paper PMC8671470.
# Columns and labels:
# Experiment in all cases: cell viability (% survival relative to DMSO control, bortezomib = 0%); higher = less cytotoxic
# Conditions in all cases: 72 h
# KCL-22 = test system: KCL-22
# Outline: (§1)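 Reported values are percent survival from duplicate wells, averaged. Fifteen myeloid leukaemia cell lines were treated in 384-well plates with compounds at 1, 10, 100, 1000 or 10000 nM for 72 h at 37 °C in 5% CO2. Signals from CellTiter-Glo luminescence were scaled with vehicle as 100% and a 10 µM positive control as 0%.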
# ML-2 = test system: ML-2
# Outline: as §1
# MOLM-13 = test system: MOLM-13
# Outline: as §1
# SHI-1 = test system: SHI-1
# Outline: as §1
Structure (SMILES),cell viability (KCL-22; 1 nM) [%],cell viability (KCL-22; 10 nM) [%],cell viability (KCL-22; 100 nM) [%],cell viability (KCL-22; 1000 nM) [%],cell viability (KCL-22; 10000 nM) [%],cell viability (ML-2; 1 nM) [%],cell viability (ML-2; 10 nM) [%],cell viability (ML-2; 100 nM) [%],cell viability (ML-2; 1000 nM) [%],cell viability (ML-2; 10000 nM) [%],cell viability (MOLM-13; 1 nM) [%],cell viability (MOLM-13; 10 nM) [%],cell viability (MOLM-13; 100 nM) [%],cell viability (MOLM-13; 1000 nM) [%],cell viability (MOLM-13; 10000 nM) [%],cell viability (SHI-1; 1 nM) [%],cell viability (SHI-1; 10 nM) [%],cell viability (SHI-1; 100 nM) [%],cell viability (SHI-1; 1000 nM) [%],cell viability (SHI-1; 10000 nM) [%]
CN(C/C=C/C#CC(C)(C)C)Cc1cccc2ccccc12 [Terbinafine],101,96.2,101,104,93.2,102,101,92.2,108,90.3,105,98.5,133,90.2,113,99.4,101,108,99.5,98.9
[N-]=[N+]=CC(=O)CC[C@H](N)C(=O)O [6-Diazo-5-oxo-L-norleucine],94.7,104,109,109,101,95.1,95.3,98.3,116,110,106,111,119,101,116,110,101,103,104,99
Cc1ccc(S(=O)(=O)NC2c3ccccc3Oc3ccccc32)cc1 [AH-7614],75.6,84,128,101,80.8,97.3,99.2,104,104,114,95.3,113,111,102,93.7,105,110,105,97.1,85.5
O=C1Nc2ccccc2/C1=C\NCCc1ccc(O)c(O)c1 [AC1NZZMF],79.2,90.9,102,106,94.3,113,111,101,95.4,75.9,97.6,104,101,108,88.9,88.8,108,89,103,90.8
CCOc1ccc(Cc2cc([C@@H]3O[C@H](CO)[C@@H](O)[C@H](O)[C@H]3O)ccc2Cl)cc1 [Dapagliflozin],116,109,54.2,96.7,107,84.8,111,85.1,108,105,92.8,111,91.1,103,121,99.4,114,85.2,91.1,107
C=CCc1ccc2c(c1O)C(=O)c1ccccc1C2=O [R162],100,98.3,101,96.6,96.7,99.4,99.2,97.8,101,90.8,94,107,106,136,99.2,101,99.7,104,118,101
C[C@H]1O[C@@H](O[C@H]2[C@@H](O)C[C@H](O[C@H]3[C@@H](O)C[C@H](O[C@H]4CC[C@@]5(C)[C@H](CC[C@@H]6[C@@H]5C[C@@H](O)[C@]5(C)[C@@H](C7=CC(=O)OC7)CC[C@]65O)C4)O[C@@H]3C)O[C@@H]2C)C[C@H](O)[C@@H]1O [Digoxin],99.1,95.3,25,0.788,0.361,99,109,5.07,-0.2,-0.154,105,105,0.137,-0.695,0.435,115,94.9,17.8,0.649,0.63
CC(C)Cc1sc(N)nc1-c1ccc(P(=O)(O)O)o1,95.8,108,108,112,101,98.1,108,105,103,92.7,134,97,102,113,104,106,98.3,106,98.7,104
O=C(O)c1nn(Cc2ccc(Cl)cc2Cl)c2ccccc12 [Lonidamine],103,111,107,84,90.7,102,106,101,93.7,95.1,102,113,116,91.3,98.4,107,114,105,95.5,99.4
C1CCC(C(CC2CCCCN2)C2CCCCC2)CC1.O=C(O)/C=C\C(=O)O (stereo not given) [Perhexiline],92,79.3,94.3,101,1.14,76.3,87.2,89.7,92.8,0.081,83.3,99.8,112,88.2,3.56,95,92,103,102,0.332
C#Cc1cnc(O)nc1O [Eniluracil],109,115,113,104,113,102,120,110,97.3,107,75.5,108,114,91.4,104,97.7,106,114,103,102
COc1c(C)c2c(c(O)c1C/C=C(\C)CCC(=O)O)C(=O)OC2 [Mycophenolic acid],105,98.8,79.8,24.7,8.9,116,105,86.5,22.7,8.02,109,109,70.9,13,2.42,105,104,92,77.2,14.4
Cc1noc2c1-c1ccccc1C(c1ccc(Cl)cc1)=N[C@H]2CC(N)=O [CPI-0610],123,94.6,91.3,49,27.7,108,91.2,92.5,62.9,33.9,74.3,88.2,73.5,5.96,3.86,105,94.5,88.8,44.4,21.8
Nc1ncnc2c1ncn2[C@@H]1O[C@H](CSCC[C@H](N)C(=O)O)[C@@H](O)[C@H]1O [S-Adenosyl Homocysteine],97.5,113,98.5,94.5,102,102,102,101,107,103,100,130,114,115,125,100,122,111,105,99.9
O=C(O)CC[C@H](NC(=O)c1ccc([N+](=O)[O-])cc1)C(=O)O [(S)-2-(4-Nitrobenzamido)pentanedioic acid],93.4,98.1,107,95.5,90.8,103,91.2,101,93.7,95.4,89,124,94.6,98.5,105,97.5,107,102,102,93.9
NC(=O)c1ncn([C@@H]2O[C@H](CO)[C@@H](O)[C@H]2O)n1 [Ribavirin],72.9,104,114,107,103,95.4,103,97.7,94.3,111,87.6,88,84.1,129,62.9,105,112,111,111,111
CCN(CC)CCN(Cc1ccc(-c2ccc(C(F)(F)F)cc2)cc1)C(=O)Cn1c(SCc2ccc(F)cc2)nc(=O)c2c1CCC2 [Darapladib],112,113,114,86.3,-0.547,102,98.2,88.9,88.8,-0.43,123,94.6,88.2,83.8,-0.315,107,107,97.4,90.6,-0.412
Oc1cc(Cl)ccc1Oc1ccc(Cl)cc1Cl [Triclosan],115,98.3,89.7,105,65.5,101,104,102,114,93.5,102,90.9,103,86.7,109,105,96,98.3,101,103
CC12CCC(O)CC1CCC1C2CCC2(C)C(C3=CC(=O)OC3)CCC12O (stereo not given) [Digitoxigenin],94.5,102,98.9,3.66,-0.896,97.3,97.5,107,0.616,-1.47,68.7,116,54.5,0.802,-1.32,108,108,103,4.47,-0.733
